In US12655394B2, “Ovarian cancer organoid culture” (MAX-PLANCK-GESELLSCHAFT ZUR FÖRDERUNG DER WISSENSCHAFTEN …, priority 2018, dated 2026):
“Also recorded” adds a separate entry of the source.

B1: Wnt 3a: Wnt protein, e.g. human Wnt 3a (RefSeq NP_149122) (protein, UniProt P56704 19-352, looked up)
Protein Wnt-3a: SYPIWWSLAVGPQYSSLGSQPILCASIPGLVPKQLRFCRNYVEIMPSVAEGIKIGIQECQHQFRGRRWNCTTVHDSLAIFGPVLDKATRESAFVHAIASAGVAFAVTRSCAEGTAAICGCSSRHQGSPGKGWKWGGCSEDIEFGGMVSREFADARENRPDARSAMNRHNNEAGRQAIASHMHLKCKCHGLSGSCEVKTCWWSQPDFRAIGDFLKDKYDSASEMVVEKHRESRGWVETLRPRYTYFKVPTERDLVYYEASPNFCEPNPETGSFGTRDRTCNVSSHGIDGCDLLCCGRGHNARAERRREKCRCVFHWCCYVSCQECTRVYDVHTCK

Key:
[1] = tested on: organoid cell lines ORG1 and ORG2; assay: Carboplatin treatment of organoid cancer lines, cell viability by luminescence (Cell Titer Glow 3D); assay type: cell-based, human; settings: patient-derived HGSC organoid lines, triplicates, FIG. 5
Description: Cell vialiability (y axis) was determined proportional to the strength of luminiscence signal (Cell Titer® Glow 3D Promega). […] Immunofluorescence analysis of the key structural and functional biomarkers confirmed that organoids match native tumor tissue in phenotype, e.g. PAX8 confirming Mullerean lineage, EpCAM, p53 and p16 (FIG. 4). All tested organoid cultures were matched in phenotype to the fragment of native tumor processed and stained in standard procedure which was used for clinical diagnosis. Ovarian cancer cancer organoids mostly lack central cavities in contrast to fallopian tube organoids which are built of polarized epithelial monolayers. This is expected as histological atypia and stratification are present already in the early stages of the carcinogenesis in the fallopian tube (Shaw et al 2009, Modern Pathology 22, 1135-1138). Panel sequencing of paired organoid culture and tissue confirmed that the tested organoids recapitulate cancer tissue composition also on the genomic level. Importantly cultures can be expanded to multi-well format to enable high throughput experimental set up.

[2] = tested on: ovarian cancer stem cells; assay: Establishment of ovarian cancer organoid lines with exogenous Wnt 3a supplementation; assay type: cell-based, human; settings: all established lines grew in Wnt3a-negative media
Description: • Adv. +++: Advanced F12 Medium+HEPES (6 ml)+Glutamax (5 ml)+5% fetal calf serum (FCS) • Adv. ++: Advanced F12 Medium+HEPES (6 ml)+Glutamax (5 ml) • Cut tissue with a scissor in small pieces and then mince further with scalpel for 3-5 minutes • Collect all fragments, incubate with 2 ml Collagenase Type 1+2 ml Collagenase type II and transfer to a 6 well plate, • Incubate fragments for 45 min at 37° C. 5% CO2, • Add 5 ml Adv +++ and transfer in to a 50 ml Falcon tube, • Vortex vigorously for 30 seconds, • Let pieces settle down, take supernatant and transfer in to a fresh tube, • Add again 5 ml Adv +++, mix with a pipette, • Let pieces settle down, take supernatant and transfer in to a fresh tube, • Centrifuge for 5 min at 400 rpm, • Discard supernatant, • Prepare 10 ml Adv +++, add 30 μl Y-27632 and 10 μl hEGF (final conc. 10 ng/ml), • Resuspend cell pellet in medium, • Seed cell in a flask, • Incubate at 5% CO2 at 37° C. and grow cells 3-5 days prior to transfer to 3D culture. […]

Row | Molecule | response to carboplatin treatment (cell viability) [1] | effect of exogenous supplementation on ovarian cancer stem cells [2]
1 | N.N.O=C([O-])C1(C(=O)[O-])CCC1.[Pt+2] [carboplatin] | differences in responsivness and kinetics; also recorded: individual patient profiles in their response | –
2 | B1 | – | detrimental
